Experiments:
[1] = test system: human peripheral blood mononuclear cells (hPBMC); test: human PBMC assay, Example 6; format: cell-based
Protocol: (§1) Hexameric oligonucleotides were tested for immunomodulatory activity alone and complexed with lactic acid/glycolic acid copolymer microcarrier beads using a human peripheral blood mononuclear cells (hPBMC) assay. Peripheral blood was collected from healthy volunteers by venipuncture using heparinized syringes. Blood was layered onto a FICOLL® (Amersham Pharmacia Biotech) cushion and centrifuged. hPBMCs, located at the FICOLL® interface, were collected, then washed twice with cold phosphate buffered saline (PBS). The cells were resuspended and cultured in 48 well plates at 2×10^6 cells/mL at 37° C. in RPMI 1640 with 10% heat-inactivated human AB serum plus 50 units/mL penicillin, 50 μg/mL streptomycin, 300 μg/mL glutamine, 1 mM sodium pyruvate, and 1×MEM non-essential amino acids (NEAA).
(§2) Oligonucleotides were tested as single agents, or in combination with PLGA microspheres (unmodified or cationic). All oligonucleotides contained 100% phosphorothioate linkages and were tested at 20 μg/ml. The PLGA microcarriers were used at 250 μg/ml. When oligos were tested with PLGA microcarriers, the oligo and the microcarriers were added at the same time to the culture. The cells were cultured in the in the presence of test samples for 24 hours, then cell-free medium was collected from each well and assayed for IFN-γ and IFN-α concentration. Two different oligonucleotides were used as controls: a first oligonucleotide known to have immunostimulatory activity (a 22mer oligonucleotide containing an ISS (“ISS+,” 5′-[…]-3′(SEQ ID NO:2)) and a second oligonucleotide of similar sequence but lacking immunostimulatory activity (“ISS−,” 5′-[…]-3′ (SEQ ID NO:1)). SAC (PANSORBIN® CalBiochem, 1/5000 dilution) and a untreated culture were used as additional positive and negative controls, respectively. SAC contains Staph. aureus (Cowan I) cell material. All samples were assayed in duplicate.
(§3) IFN-γ and IFN-α were assayed using CYTOSCREEN™ ELISA kits from BioSource International, Inc., according to the manufacturer's instructions.
(§4) The immunomodulatory activity of the oligonucleotides used in Examples 3 and 4 was confirmed with the human PBMC assay using PBMCs from an additional four donors (donors 28051-28054). Oligonucleotides were tested alone or in combination with cationic PLGA as described in Example 3, except that 96 well plates were used instead of 48 well plates and the oligonucleotides were premixed with the cationic microspheres at room temperature for 15 minutes before they were added to the culture, rather than being added simultaneously to the culture.
Additional oligonucleotides were tested for immunomodulatory activity in the human PBMC assay. Oligonucleotides were tested alone or in combination with cPLGA as described in Example 5.
Additional oligonucleotides were tested using hPBMCs from volunteers 154-157 using the same assay. Results, which are shown in Table 7, confirm the activity of oligonucleotides fitting the formula 5′-X1TCGX2-3′, where the oligonucleotide is a 3-6mer, X1 is zero or one nucleotide and X2 is zero to three nucleotides.

[2] = test system: human peripheral blood mononuclear cells (hPBMC); test: human PBMC assay, Example 7 (oligo 20 μg/ml, cPLGA 100 μg/ml); format: cell-based; details: for immunomodulatory activity: combined with cPLGA; for IFN-α Mean / IFN-γ Mean: mean of donors 28115-28118
Protocol: as §1, §2, §3, §4
Additional oligonucleotides, some incorporating modified bases, were tested for immunomodulatory activity in the human PBMC assay. Oligonucleotides were tested alone or in combination with cPLGA as described in Example 5. The oligonucleotides were premixed with the cationic PLGA microspheres for 15 minutes at room temperature at concentrations of 20 μg/ml and 100 μg/ml, respectively.

[3] = delivered as oligonucleotide/MC complex (cPLGA)

Substance: 5′-TCG-3′ [Oligonucleotide 3-1]
- immunomodulatory activity [1, 3]: active in two out of four donors
- IFN-α ([1]; donor 28075): 0 pg/mL
- IFN-γ ([1]; donor 28075): 7 pg/mL
- IFN-α ([1]; donor 28076): 0 pg/mL
- IFN-γ ([1]; donor 28076): 11 pg/mL
- IFN-α ([1]; donor 28077): 4 pg/mL
- IFN-γ ([1]; donor 28077): 12 pg/mL
- IFN-α ([1]; donor 28078): 11 pg/mL
- IFN-γ ([1]; donor 28078): 15 pg/mL
- IFN-α Mean ([1]; mean of donors 28075-28078): 4 pg/mL
- IFN-γ Mean ([1]; mean of donors 28075-28078): 11 pg/mL

Substance: 5′-AATCGT-3′ [Oligonucleotide 6-25]
- immunomodulatory activity [2]: active
- IFN-α ([2]; donor 28115): 7 pg/mL
- IFN-γ ([2]; donor 28115): 2 pg/mL
- IFN-α ([2]; donor 28116): 0 pg/mL
- IFN-γ ([2]; donor 28116): 15 pg/mL
- IFN-α ([2]; donor 28117): 0 pg/mL
- IFN-γ ([2]; donor 28117): 11 pg/mL
- IFN-α ([2]; donor 28118): 0 pg/mL
- IFN-γ ([2]; donor 28118): 0 pg/mL
- IFN-α Mean [2]: 2 pg/mL
- IFN-γ Mean [2]: 7 pg/mL

Substance: 5′-TCCGGA-3′ [Oligonucleotide 6-18, reference compound]
- immunomodulatory activity [1, 3]: largely inactive
- IFN-α Mean ([1]; mean of volunteers 154-157): 0 pg/mL
- IFN-γ Mean ([1]; mean of volunteers 154-157): 4 pg/mL
- IFN-α ([1]; volunteer 154): 0 pg/mL
- IFN-γ ([1]; volunteer 154): 0 pg/mL
- IFN-α ([1]; volunteer 155): 0 pg/mL
- IFN-γ ([1]; volunteer 155): 0 pg/mL
- IFN-α ([1]; volunteer 156): 0 pg/mL
- IFN-γ ([1]; volunteer 156): 15 pg/mL
- IFN-α ([1]; volunteer 157): 0 pg/mL
- IFN-γ ([1]; volunteer 157): 0 pg/mL

Substance: 5′-TTCGT-3′ [Oligonucleotide 5-3]
- immunomodulatory activity [2]: active in two of four donors
- IFN-α ([2]; donor 28115): 10 pg/mL
- IFN-γ ([2]; donor 28115): 26 pg/mL
- IFN-α ([2]; donor 28116): 0 pg/mL
- IFN-γ ([2]; donor 28116): 4 pg/mL
- IFN-α ([2]; donor 28117): 0 pg/mL
- IFN-γ ([2]; donor 28117): 17 pg/mL
- IFN-α ([2]; donor 28118): 0 pg/mL
- IFN-γ ([2]; donor 28118): 0 pg/mL
- IFN-α Mean [2]: 3 pg/mL
- IFN-γ Mean [2]: 12 pg/mL

Substance: 5′-GCGTTT-3′ [Oligonucleotide 6-15]
- immunomodulatory activity ([1]; delivered alone): inactive
- immunomodulatory activity [1, 3]: inactive
- IFN-α ([1]; donor 28075): 36 pg/mL
- IFN-γ ([1]; donor 28075): 11 pg/mL
- IFN-α ([1]; donor 28076): 9 pg/mL
- IFN-γ ([1]; donor 28076): 12 pg/mL
- IFN-α ([1]; donor 28077): 35 pg/mL
- IFN-γ ([1]; donor 28077): 15 pg/mL
- IFN-α ([1]; donor 28078): 36 pg/mL
- IFN-γ ([1]; donor 28078): 11 pg/mL
- IFN-α Mean ([1]; mean of donors 28075-28078): 29 pg/mL
- IFN-γ Mean ([1]; mean of donors 28075-28078): 13 pg/mL

Substance: 5′-TCCTTT-3′ [Oligonucleotide 6-20, reference compound]
- IFN-α ([2]; donor 28115): 0 pg/mL
- IFN-γ ([2]; donor 28115): 6 pg/mL
- IFN-α ([2]; donor 28116): 0 pg/mL
- IFN-γ ([2]; donor 28116): 3 pg/mL
- IFN-α ([2]; donor 28117): 0 pg/mL
- IFN-γ ([2]; donor 28117): 9 pg/mL
- IFN-α ([2]; donor 28118): 0 pg/mL
- IFN-γ ([2]; donor 28118): 0 pg/mL
- IFN-α Mean [2]: 0 pg/mL
- IFN-γ Mean [2]: 5 pg/mL
- IFN-α Mean ([1]; mean of volunteers 154-157): 0 pg/mL
- IFN-γ Mean ([1]; mean of volunteers 154-157): 3 pg/mL
- IFN-α ([1]; volunteer 154): 0 pg/mL
- IFN-γ ([1]; volunteer 154): 0 pg/mL
- IFN-α ([1]; volunteer 155): 0 pg/mL
- IFN-γ ([1]; volunteer 155): 0 pg/mL
- IFN-α ([1]; volunteer 156): 0 pg/mL
- IFN-γ ([1]; volunteer 156): 13 pg/mL
- IFN-α ([1]; volunteer 157): 0 pg/mL
- IFN-γ ([1]; volunteer 157): 0 pg/mL

Substance: 5′-CGATCG-3′ [Oligonucleotide 6-11]
- IFN-α Mean ([1]; mean of volunteers 154-157): 0 pg/mL
- IFN-γ Mean ([1]; mean of volunteers 154-157): 3 pg/mL
- IFN-α ([1]; volunteer 154): 0 pg/mL
- IFN-γ ([1]; volunteer 154): 0 pg/mL
- IFN-α ([1]; volunteer 155): 0 pg/mL
- IFN-γ ([1]; volunteer 155): 0 pg/mL
- IFN-α ([1]; volunteer 156): 0 pg/mL
- IFN-γ ([1]; volunteer 156): 10 pg/mL
- IFN-α ([1]; volunteer 157): 0 pg/mL
- IFN-γ ([1]; volunteer 157): 0 pg/mL

Substance: 5′-UCGTTT-3′ [Oligonucleotide 6-21]
- immunomodulatory activity [2]: active
- IFN-α ([2]; donor 28115): 0 pg/mL
- IFN-γ ([2]; donor 28115): 27 pg/mL
- IFN-α ([2]; donor 28116): 0 pg/mL
- IFN-γ ([2]; donor 28116): 0 pg/mL
- IFN-α ([2]; donor 28117): 0 pg/mL
- IFN-γ ([2]; donor 28117): 7 pg/mL
- IFN-α ([2]; donor 28118): 0 pg/mL
- IFN-γ ([2]; donor 28118): 0 pg/mL
- IFN-α Mean [2]: 0 pg/mL
- IFN-γ Mean [2]: 8 pg/mL

Reference: patent US8586555B2, “Immunomodulatory compositions, formulations, and methods for use thereof” (Dynavax Technologies Corporation, priority 2001, dated 2013)
